Test results from patent publication US4689340A, “Trihaloimidazole insecticide” (Sumitomo Chemical Company, Limited, priority 1985, dated 1987).
Like-named read-outs stand apart in the source and are kept apart here.

Columns and labels:
[1] = test system: German cockroach (Blattela germanica); experiment: Oil spray direct spray knock-down test, strain low susceptible to pyrethroids (Test Example 5); assay type: in vivo; conditions: 0.6 ml of 0.1% oil spray
Source text: (§1) […] of the present compound (1), 2 parts of xylene and 97.8 parts of kerosene are mixed to obtain an oil spray.
(§2) Two groups of five male and five femlae adults per group of German cockroach (Blattela germanica), one group belonging to a susceptible strain and the other belonging to a strain low susceptible to pyrethroids,were liberated in a polyethylene cup of 9 cm in diameter thinly coated with vaseline at the inside surface. After covering the cup with a 16-mesh nylon gauze, the cup was placed on the bottom of a glass cylinder (inside diameter, 10 cm; height, 37 cm). Thereafter 0.6 ml of each of the 0.1% oil sprays of the present compounds and the control, prepared according to Formulation example 1, was directly sprayed onto the adults by means of a spray gun under 0.6 atmospheric pressure from the top of the cylinder. The number of knocked-down insects with the lapse of time was counted to obtain KT50 value (50% knocked-down time) (two replications).

[2] = test system: smoky brown cockroach (Periplaneta fuliginosa); experiment: Topical application insecticidal test on smoky brown cockroach (Test Example 2); assay type: in vivo; conditions: Validiblatta fuliginosa, 48 h
Protocol: (§3) The present compounds and the control were each diluted with acetone and topically applied to the ventral thorax of the male adults of smoky brown cockroach (Periplaneta fuliginosa) at a rate of 10μg a.i./adult. After application, the adults were bred on bait and water in a polyethylene cup. After two days, the number of the dead and alive was examined to obtain a mortality (5 adults per group; two replications).

[3] = test system: German cockroaches (Blattella germanica); experiment: Heating fumigant test in (183 cm)^3 Peet Grady's chamber (Test Example 4); assay type: in vivo, strain low susceptible to pyrethroids; conditions: for mortality at 10 mg/m3, 10 mg/m3: Blattella germanica, 72 h
Protocol: (§4) One hundred mg of each of the present compounds (1) to (7) is dissolved in a proper amount of acetone, and a porous ceramic plate of 4.0 cm×4.0cm×1.2 cm (thick) is impregnated with this solution to obtain the heating fumigant of each compound.
At the bottom of a (183 cm)^3 Peet Grady's chamber (6.1 m^3) were placed three polyethylene cups (inside diameter, 10 cm; height, 8 cm) coated with butter at the inside surface, and 20 adult German cockroaches (10 males and 10 females) (Blattella germanica), which belong to a strain low susceptible to pyrethroids were liberated in each cup. An electric heater was set at the center of the bottom of the chamber, and each of the porous ceramic plates impregnated with the present compounds and the control according to Formulation example 8 (61 mg/plate: 10 mg/m^3), was placed thereon. The plate was heated to about 200° C. by applying current for 70 minutes. The number of knocked-down insects with the lapse of time was examined to obtain KT50 value (50% knocked-downtime). Eighty minutes after current application was started, the cups containing the test insects were taken out of the chamber, and the test insects were bred on water and bait. After three days, the number of the dead and alive was examined to obtain a mortality.

[4] = test system: German cockroach (Blattella germanica); experiment: Heating fumigant test in (70 cm)^3 glass chamber (Test Example 3); assay type: in vivo, strain low susceptible to pyrethroids; conditions: for mortality at 40 mg/m3, 40 mg/m3: Blattella germanica, 48 h
Protocol: as §4
Four polyethylene cups (inside diameter, 10 cm; height, 8 cm) coated with butter at the inside surface were set at the four corners, respectively, of the bottom of a (70 cm)^3 glass chamber (0.34 m^3). Ten male adults per group of German cockroach (Blattella germanica) which belongs to a strain low susceptible to pyrethroids, were liberated in each of two polyethylene cups, and 10 female adults per group of the insect were liberated in each of the remaining two. An electric heater was set at the center of the bottom of the glass chamber, and each of the porous ceramic plates impregnating the present compounds and the control according to Formulation example 8 (13.7 mg/plate: 40 mg/m^3), was placed thereon. The plate was heated to about 200° C. by applying current for 20 minutes. The number of knocked-down insects with the lapse of time was examined to obtain KT50 (50% knocked-down time). Eighty minutes after current application was started, the cups containing the test insects were taken out of the chamber, and the test insects were bred on water and bait. After two days, the number of the dead and alive was examined to obtain a mortality.

[5] = test system: German cockroach (Blattela germanica); experiment: Oil spray direct spray knock-down test, susceptible strain (Test Example 5); assay type: in vivo; conditions: 0.6 ml of 0.1% oil spray
Source text: as §1, §2

cockroach = experiment: Insecticidal activity as cockroach-controlling insecticides (general statement); assay type: in vivo; conditions: among the listed cockroach-controlling compounds
[6] = Acute Oral Toxicity Test to Mice (Test Example 1-1); conditions: mouse, in vivo; for selectivity ratio: po, mice oral LD50 (a) / German cockroach LD50 (b), read-out: Safety coefficient (a)/(b); for LD50 at 168 h: oral (stomach), corn oil, male ICR mice, 7 days' observation
Protocol: 1-1 Acute Oral Toxicity Test to Mice
(§5) The present compounds and the control were each diluted with corn oil to prescribed concentrations, and the dilute solutions obtained were forcedly administered to the stomach of six-week old male mice of ICR strain weighing 24 to 31 g, to which no food had been given for about 20 hours, at a rate of 0.1 ml/10 g of body weight. […] The number of the dead and alive was examined by seven day's observation to obtain LD50 value (50% lethal dosage) (5 mice per group). 1-2 Insecticidal activity test to German cockroach
The results of the acute oral toxicity test to mice and insecticidal activity test to German cockroaches on the test compounds are shown in Table 3. It is apparent from the table that the present compounds have the characteristics that the toxicity to the warm-blooded animal is low and the insecticidal activity on the insect pest is high. In order to make this characteristics clearer, the following safety coefficient was obtained from the test results. [formula]

[7] = test system: German cockroach (Blattella germanica); experiment: Insecticidal activity test to German cockroach, topical application (Test Example 1-2); assay type: in vivo, strain low susceptible to pyrethroids; conditions: 48 h, read-out: Insecticidal activity on German cockroaches LD50 value (b)
Protocol: as §5
as §3, with “acetone to prescribed concentrations” for “acetone”, “German” for “smoky brown”, “(Blattella germanica) which belong to a strain low susceptible to pyrethroids,” for “(Periplaneta fuliginosa)”, “1 μl/adult.” for “10μg a.i./adult.”, “LD50 value (10” for “a mortality (5”

[8] = ceramic plate heating fumigant, 61 mg/plate: 10 mg/m^3, 6.1 m^3 chamber
[9] = ceramic plate heating fumigant, 13.7 mg/plate: 40 mg/m^3, 0.34 m^3 chamber
[10] = ceramic plate heating fumigant, 61 mg/plate: 10 mg/m^3, 6.1 m^3 chamber, after three days, read-out: Mortality (%)
[11] = ceramic plate heating fumigant, 13.7 mg/plate: 40 mg/m^3, 0.34 m^3 chamber, after two days, read-out: Mortality (%)

| SMILES | Strain low susceptible to pyrethroids KT50 value [1] | mortality at 0.01 mg [2] [%] | mortality at 10 mg/m3, 10 mg/m3 [3] [%] | KT50 value (50% knocked-down time) [3, 8] [min] | mortality at 40 mg/m3, 40 mg/m3 [4] [%] | KT50 value (50% knocked-down time) [4, 9] [min] | Susceptible strain KT50 value [5] [min] | insecticidal activity (in words) (cockroach) | selectivity ratio [6] | LD50 at 168 h [6] [mg/kg] | LD50 [7] [mg/kg] | mortality at 10 mg/m3, 10 mg/m3 [3, 10] [%] | mortality at 40 mg/m3, 40 mg/m3 [4, 11] [%] | mortality at 0.01 mg ([2]; 10μg a.i./adult, male adults, after two days, read-out: Mortality (%)) [%] |
| --- | --- | --- | --- | --- | --- | --- | --- | --- | --- | --- | --- | --- | --- | --- |
| Clc1nc(Cl)n(COCCCCBr)c1Cl [(1), 1-(4-bromobutoxymethyl)-2,4,5-trichloroimidazole] | 0.70 min | 80 | 100 | 38 | 100 | 28 | 1.1 | most superior insecticidal activity | > 50 | > 300 | 6.4 | – | – | – |
| ClCCCCOCn1c(Cl)nc(Cl)c1Cl [(2), 1-(4-chlorobutoxymethyl)-2,4,5-trichloroimidazole] | – | 100 | 80 | 63 | 100 | 41 | – | – | > 50 | > 300 | 6.2 | – | – | – |
| BrCCCCOCn1c(Br)nc(Br)c1Br [(3), 1-(4-bromobutoxymethyl)-2,4,5-tribromoimidazole] | 1.2 min | – | – | 77 | – | 45 | 1.1 | – | – | – | – | 90 | 100 | – |
| ClCCCCOCn1c(Br)nc(Br)c1Br [(4), 1-(4-chlorobutoxymethyl)-2,4,5-tribromoimidazole] | ≈ 0.5 minute | – | – | – | – | 58 | 2.1 | – | – | – | – | – | 90 | – |
| Clc1nc(Cl)n(COCCCCCBr)c1Cl [(5)] | – | – | – | – | – | 68 | – | – | – | – | – | – | 87.5 | – |
| Clc1nc(Cl)n(COCCCCCCBr)c1Cl [(6), 1-(6-bromohexyloxymethyl)-2,4,5-trichloroimidazole] | – | – | – | 41 | – | – | – | – | – | – | – | 95 | – | – |
| BrCCCCCCOCn1c(Br)nc(Br)c1Br [(7), 1-(6-bromohexyloxymethyl)-2,4,5-tribromoimidazole] | 0.72 min | – | – | – | – | 65 | 2.3 | – | – | – | – | – | 92.5 | – |
| CCCCOCn1c(Cl)nc(Cl)c1Cl [(A)] | > 20 min | – | – | > 80 | – | – | > 20 | – | – | – | > 10 | 8 | – | – |
| CCCCCOCn1c(Cl)nc(Cl)c1Cl [(B)] | > 20 min | – | – | > 80 | – | > 80 | > 20 | – | – | – | > 20 | 0 | 47.5 | 40 |
| BrCCOCn1c(Br)nc(Br)c1Br [(C)] | ≥ 20 min | – | 40 | > 80 | – | – | > 20 | – | 16 | 110 | 7 | – | – | – |
| ClCCOCn1c(Br)nc(Br)c1Br [(D)] | ≈ 20 minute | – | 3 | > 80 | – | – | > 20 | – | 18 | 170 | 9.4 | – | – | – |
| CNC(=O)Oc1ccccc1OC(C)C [(E), Propoxur] | 10 min | – | – | > 80 | – | > 80 | 6.9 | – | 5.6 | 39 | 7 | 0 | 0 | – |
